Results reported in ChEMBL document CHEMBL1144158, “Synthesis and biological properties of 2-methylene-19-nor-25-dehydro-1alpha-hydroxyvitamin D(3)-26,23-lactones--weak agonists” (Bioorg Med Chem, 2008).
Calls of active or inactive are those of the source. The calls are words filed in the database; no cut-off is given here.

Tests used:
[1] = target: T1, Vitamin D3 receptor (Rattus norvegicus) (UniProt P13053); experiment: Antagonist activity at rat recombinant VDR expressed in rat ROS 17/2.8 cells transfected with 24-hydroxylase gene promoter assessed as 1-alpha,25-(OH)2D3-induced transcriptional activation at 0.001 uM to 0.1 uM after 16 hrs by luciferase reporter gene assay; type: functional, cell-based
T1 sequence (whole entry): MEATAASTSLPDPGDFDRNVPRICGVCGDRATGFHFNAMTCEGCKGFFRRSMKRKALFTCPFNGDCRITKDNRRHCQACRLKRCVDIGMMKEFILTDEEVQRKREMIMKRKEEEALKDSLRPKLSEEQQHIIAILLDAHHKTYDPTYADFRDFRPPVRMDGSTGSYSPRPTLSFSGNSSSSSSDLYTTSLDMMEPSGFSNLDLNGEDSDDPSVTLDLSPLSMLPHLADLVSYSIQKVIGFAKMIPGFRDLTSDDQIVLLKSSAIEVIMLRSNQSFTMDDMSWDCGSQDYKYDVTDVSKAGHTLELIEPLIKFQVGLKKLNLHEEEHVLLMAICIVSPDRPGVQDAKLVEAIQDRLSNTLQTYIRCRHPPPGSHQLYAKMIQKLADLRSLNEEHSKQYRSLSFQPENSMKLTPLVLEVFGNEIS

[2] = target: T2, Vitamin D3 receptor (Rattus norvegicus, UniProt P13053); experiment: Displacement of [3H]1-alpha,25-(OH)2D3 from rat recombinant full length VDR
T2 sequence (P13053 whole entry): T1 sequence (whole entry)

[3] = system: HL-60; experiment: Induction of differentiation of human HL-60 cells promyelocytes to monocytes after 4 days by NBT reduction assay; type: functional, cell-based; conditions: HL-60, 96 h
[4] = target: T2, Vitamin D3 receptor; experiment: Activity at rat recombinant full length VDR expressed in rat ROS 17/2.8 cells transfected with 24-hydroxylase gene promoter assessed as transcriptional activation after 16 hrs by luciferase reporter gene assay
[5] = system: Rattus norvegicus; experiment: Effect on calcium transport in vitamin D-deficient Sprague-Dawley rat intestine assessed as ratio of serosal to mucosal calcium level at 260 pmol, ip administered 4 consecutive daily doses assessed after 24 hrs of last dose by gut sac assay; type: functional
[6] = system: Rattus norvegicus; experiment: Effect on calcium transport in vitamin D-deficient Sprague-Dawley rat intestine assessed as ratio of serosal to mucosal calcium level at 2340 pmol, ip administered 4 consecutive daily doses assessed after 24 hrs of last dose by gut sac assay; type: functional
[7] = system: Rattus norvegicus; experiment: Effect on bone calcium mobilization in vitamin D-deficient Sprague-Dawley rat assessed as serum calcium level at 260 pmol, ip administered 4 consecutive daily doses assessed after 24 hrs of last dose by spectrometry; type: functional
[8] = system: Rattus norvegicus; experiment: Effect on bone calcium mobilization in vitamin D-deficient Sprague-Dawley rat assessed as serum calcium level at 2340 pmol, ip administered 4 consecutive daily doses assessed after 24 hrs of last dose by spectrometry; type: functional
[9] = system: Rattus norvegicus; experiment: Effect on calcium transport in vitamin D-deficient Sprague-Dawley rat intestine assessed as ratio of serosal to mucosal calcium level at 320 pmol, ip administered 4 consecutive daily doses assessed after 24 hrs of last dose by gut sac assay; type: functional
[10] = system: Rattus norvegicus; experiment: Effect on calcium transport in vitamin D-deficient Sprague-Dawley rat intestine assessed as ratio of serosal to mucosal calcium level at 960 pmol, ip administered 4 consecutive daily doses assessed after 24 hrs of last dose by gut sac assay; type: functional
[11] = system: Rattus norvegicus; experiment: Effect on calcium transport in vitamin D-deficient Sprague-Dawley rat intestine assessed as ratio of serosal to mucosal calcium level at 7800 pmol, ip administered 4 consecutive daily doses assessed after 24 hrs of last dose by gut sac assay; type: functional
[12] = system: Rattus norvegicus; experiment: Effect on bone calcium mobilization in vitamin D-deficient Sprague-Dawley rat assessed as serum calcium level at 7800 pmol, ip administered 4 consecutive daily doses assessed after 24 hrs of last dose by spectrometry; type: functional
[13] = system: Rattus norvegicus; experiment: Effect on bone calcium mobilization in vitamin D-deficient Sprague-Dawley rat assessed as serum calcium level at 320 pmol, ip administered 4 consecutive daily doses assessed after 24 hrs of last dose by spectrometry; type: functional
[14] = system: Rattus norvegicus; experiment: Effect on bone calcium mobilization in vitamin D-deficient Sprague-Dawley rat assessed as serum calcium level at 960 pmol, ip administered 4 consecutive daily doses assessed after 24 hrs of last dose by spectrometry; type: functional

Structure (SMILES) | Activity [1] | Ki [2] | EC50 [3] | EC50 [4] | Ratio [5] | Ratio [6] | Ratio [7] | Ratio [8] | Ratio [9] | Ratio [10] | Ratio [11] | Ratio [12] | Ratio [13] | Ratio [14]
C=C1[C@H](O)CC(=C/C=C2\CCC[C@]3(C)[C@@H]([C@H](C)/C=C/[C@@H](O)C4(C(=O)OCCCC)CC4)CC[C@@H]23)C[C@H]1O | Active |  |  |  |  |  |  |  |  |  |  |  |  | 
C=C1C[C@H](C[C@@H](C)[C@H]2CC[C@H]3/C(=C/C=C4C[C@@H](O)C(=C)[C@H](O)C4)CCC[C@]23C)OC1=O |  | 1 nM | 4 nM | 2 nM | 7.6 | 9.5 | 4.4 | 4.2 |  |  |  |  |  | 
C=C1C[C@@H](C[C@@H](C)[C@H]2CC[C@H]3/C(=C/C=C4C[C@@H](O)C(=C)[C@H](O)C4)CCC[C@]23C)OC1=O |  | 2 nM | 2 nM | 100 nM | 5.6 | 9.6 |  |  | 5.1 | 5.9 | 11 | 4 | 3.7 | 3.8
